Data published in patent US9896445B2, “Heterocyclic inhibitors of ERK1 and ERK2 and their use in the treatment of cancer” (Asana Biosciences, LLC, priority 2015, dated 2018).

Experiments:
ERK1 = target: T1, ERK1 (Homo sapiens, UniProt P27361); assay: ERK1 HTRF (biochemical) assay
T1 construct: purchased Jubilant Biosys
Description: ERK1 and ERK2 HTRF (Biochemical) Assays
These assays employed a homogeneous time resolved fluorescence (HTRF) technique. […] The plate was incubated at room temperature for 60 min with shaking. […] The IC50 values (half maximal inhibitory concentration values) were subsequently determined using a sigmoidal dose-response curve (variable slope) in GraphPad Prism® 5 software.

ERK2 = target: T2, ERK2 (Homo sapiens, UniProt P28482); assay: ERK2 HTRF (biochemical) assay
T2 construct: purchased Jubilant Biosys
T2 sequence (P28482 whole entry): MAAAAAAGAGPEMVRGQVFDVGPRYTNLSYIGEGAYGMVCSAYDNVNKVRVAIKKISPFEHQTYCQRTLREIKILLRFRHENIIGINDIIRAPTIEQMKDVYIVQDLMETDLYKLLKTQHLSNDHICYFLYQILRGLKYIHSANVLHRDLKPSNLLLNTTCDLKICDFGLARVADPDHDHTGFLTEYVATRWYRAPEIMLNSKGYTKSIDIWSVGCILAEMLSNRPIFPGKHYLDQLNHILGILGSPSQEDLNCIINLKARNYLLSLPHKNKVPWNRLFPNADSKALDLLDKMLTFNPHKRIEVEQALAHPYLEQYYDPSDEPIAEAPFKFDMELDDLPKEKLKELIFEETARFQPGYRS
In short: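 Compounds were tested as half-log dilutions from 0.0005 to 10 uM in Tris pH 7.5/MgCl2 buffer, with a substrate mix of 1 uM biotin-MBP peptide and 24 uM ATP and an enzyme mix of 25 nM ERK2. Reaction ran 60 min at room temperature. Phospho-MBP was detected by HTRF (Eu-anti-phospho-MBP/SA-APC, 665/620 nm), and IC50 was fitted with a variable-slope sigmoidal curve.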

T1 sequence (P27361 whole entry): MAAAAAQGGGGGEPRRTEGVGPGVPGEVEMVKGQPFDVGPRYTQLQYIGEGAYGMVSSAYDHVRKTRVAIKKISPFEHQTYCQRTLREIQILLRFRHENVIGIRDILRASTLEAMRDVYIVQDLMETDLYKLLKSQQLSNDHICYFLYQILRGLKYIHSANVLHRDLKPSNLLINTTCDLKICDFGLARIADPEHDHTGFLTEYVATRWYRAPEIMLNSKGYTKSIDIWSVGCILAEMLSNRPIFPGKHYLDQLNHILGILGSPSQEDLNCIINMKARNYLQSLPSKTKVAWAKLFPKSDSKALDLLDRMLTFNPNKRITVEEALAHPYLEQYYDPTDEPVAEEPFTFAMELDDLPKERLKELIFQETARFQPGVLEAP

SMILES | IC50 (ERK1; HTRF) [µM] | IC50 (ERK2; HTRF) [µM] | IC50 (ERK1; HTRF biochemical assay) [µM] | IC50 (ERK2; HTRF biochemical assay) [µM]
Cc1cnc(Nc2ccc3c(c2)CCO3)nc1-n1ccc(C(=O)NC(CO)c2ccccc2)c1 (stereo not drawn) [Compound 138, 1-(2-((2,3-dihydro-benzofuran-5-yl)amino)-5-methylpyrimidin-4-yl)-N-(2-hydroxy-1-phenylethyl)-1H-pyrrole-3-carboxamide] | < 0.05 | ≤ 0.05 | – | –
Cc1cnc(NC2CCOCC2)nc1-n1cnc(C(=O)NCc2ccccc2CN)c1 [Example 283, N-(2-(amino-methyl)benzyl)-1-(5-methyl-2-((tetrahydro-2H-pyran-4-yl)amino)-pyrimidin-4-yl)-1H-imidazole-4-carbox amide] | < 0.05 | ≤ 0.05 | – | –
Cc1cnc(Nc2ccc(F)cc2Cl)nc1-n1ccc(C(=O)NC(CO)c2cccc(Cl)c2)c1 (stereo not drawn) [Compound 31, 1-(2-((2-chloro-4-fluorophenyl)amino)-5-methyl-pyrimidin-4-yl)-N-(1-(3-chlorophenyl)-2-hydroxyethyl)-1H-pyrrole-3-carboxamide] | < 0.05 | ≤ 0.05 | – | –
COc1ccc(Nc2ncc(C)c(-n3ccc(C(=O)NC(CO)c4cccc(Cl)c4)c3)n2)cc1OCCCN(C)C (stereo not drawn) [Compound 184, N-(1-(3-chloro-phenyl)-2-hydroxy-ethyl)-1-(2-((3-(3-(dimethylamino)propoxy)-4-methoxy-phenyl)amino)-5-methylpyrimidin-4-yl)-1H-pyrrole-3-carboxamide] | < 0.05 | ≤ 0.05 | – | –
Cc1cnc(NC2CCOCC2)nc1-n1cnc(C(=O)NC(CO)c2cccc(C(F)(F)F)c2)c1 (stereo not drawn) [Compound 237, N-(2-hydroxy-1-(3-(trifluoromethyl)-phenyl)ethyl)-1-(5-methyl-2-((tetrahydro-2H-pyran-4-yl)amino)-pyrimidin-4-yl)-1H-imidazole-4-carboxamide] | < 0.05 | ≤ 0.05 | – | –
Cc1cnc(Nc2ccc(F)cc2Cl)nc1-n1cnc(C(=O)N[C@H](CO)c2cccc(Cl)c2)c1 [Compound 241, (S)-1-(2-((2-chloro-4-fluorophenyl)-amino)-5-methyl-pyrimidin-4-yl)-N-(1-(3-chlorophenyl)-2-hydroxyethyl)-1H-imidazole-4-carboxamide] | < 0.05 | ≤ 0.05 | – | –
COc1cc(C(=O)N2CCOCC2)c(F)cc1Nc1ncc(C)c(-n2ccc(C(=O)NC(CO)c3cccc(Cl)c3)c2)n1 (stereo not drawn) [Compound 181, N-(1-(3-chlorophenyl)-2-hydroxyethyl)-1-(2-((5-fluoro-2-methoxy-4-(morpholine-4-carbonyl)phenyl)amino)-5-methyl-pyrimidin-4-yl)-1H-pyrrole-3-carboxamide] | < 0.05 | ≤ 0.05 | – | –
Cc1cnc(Nc2ccc(F)cc2)nc1-n1cc(C(=O)NC(CO)c2ccccc2)nc1C (stereo not drawn) [Compound 153, 1-(2-((4-Fluorophenyl)amino)-5-methylpyrimidin-4-yl)-N-(2-hydroxy-1-phenylethyl)-2-methyl-1H-imidazole-4-carboxamide] | 0.1 to 0.5 | 0.1 to 0.5 | – | –
Cc1cnc(NC2COC2)nc1-n1cnc(C(=O)N[C@H](CN)c2cccc(Cl)c2)c1 [Example 268, (S)-N-(2-amino-1-(3-chlorophenyl)-ethyl)-1-(5-methyl-2-(oxetan-3-ylamino)pyrimidin-4-yl)-1H-imidazole-4-carboxamide] | < 0.05 | ≤ 0.05 | – | –
Cc1cnc(Nc2ccc3c(c2)OCO3)nc1-n1ccc(C(=O)NC(CO)c2cc(Cl)cc(Cl)c2)c1 (stereo not drawn) [Compound 58, 1-(2-(benzo[d][1,3]dioxol-5-ylamino)-5-methylpyrimidin-4-yl)-N-(1-(3,5-dichlorophenyl)-2-hydroxyethyl)-1H-pyrrole-3-carboxamide] | < 0.05 | ≤ 0.05 | – | –
O=C(Nc1cnn(-c2ccnc(Nc3ccccc3Cl)n2)c1)N[C@H](CO)c1cccc(Cl)c1 [Compound 1, (S)-1-(1-(3-chlorophenyl)-2-hydroxyethyl)-3-(1-(2-((2-chloro-phenyl)amino)pyrimidin-4-yl)-1H-pyrazol-4-yl)urea] | < 0.05 | ≤ 0.05 | – | –
Cc1cnc(NC2CC(F)(F)C2)nc1-n1cnc(C(=O)N[C@H](CN)c2cc(F)cc(Cl)c2)c1 [Example 288, (S)-N-(2-amino-1-(3-chloro-5-fluoro-phenyl)ethyl)-1-(2-((3,3-difluoro-cyclobutyl)amino)-5-methylpyrimidin-4-yl)-1H-imidazole-4-carboxamide] | < 0.05 | ≤ 0.05 | – | –
Cc1cnc(NC2CCOCC2)nc1-n1cnc(C(=O)NCc2nc(Cl)sc2C)c1 [Example 328, N-((2-chloro-5-methylthiazol-4-yl)methyl)-1-(5-methyl-2-((tetrahydro-2H-pyran-4-yl)amino)-pyrimidin-4-yl)-1H-imidazole-4-carboxamide] | – | – | < 0.05 | ≤ 0.05
Cc1cnc(NCC2CCCO2)nc1-n1ccc(C(=O)N[C@H](CO)c2cccc(Cl)c2)c1 (stereo partly drawn) [Compound 190, N-((S)-1-(3-chlorophenyl)-2-hydroxyethyl)-1-(5-methyl-2-(((tetrahydrofuran-2-yl)methyl)-amino)pyrimidin-4-yl)-1H-pyrrole-3-carboxamide] | < 0.05 | 0.05 to 0.1 | – | –
Cc1cnc(NC2CCOCC2)nc1-n1cnc(C(=O)NCc2sccc2CO)c1 [Example 284, N-((3-(hydroxy-methyl)thiophen-2-yl)methyl)-1-(5-methyl-2-((tetrahydro-2H-pyran-4-yl)amino)-pyrimidin-4-yl)-1H-imidazole-4-carboxamide] | < 0.05 | ≤ 0.05 | – | –
Cc1cnc(Nc2ccc3c(c2)OCO3)nc1-n1cnc(C(=O)NC(CN)c2cc(F)cc(Cl)c2)c1 (stereo not drawn) [Example 269, N-(2-amino-1-(3-chloro-5-fluorophenyl)ethyl)-1-(2-(benzo[d][1,3]dioxol-5-ylamino)-5-methylpyrimidin-4-yl)-1H-imidazole-4-carboxamide] | < 0.05 | ≤ 0.05 | – | –
Cc1cnc(Nc2ccc(F)cc2Cl)nc1-n1ccc(C(=O)NC(CN)c2cccc(Cl)c2)c1 (stereo not drawn) [Compound 169, N-(2-amino-1-(3-chlorophenyl)ethyl)-1-(2-((2-chloro-4-fluorophenyl)amino)-5-methyl-pyrimidin-4-yl)-1H-pyrrole-3-carboxamide] | 0.05 to 0.1 | 0.05 to 0.1 | – | –
CC(=O)OCc1c(Cl)cccc1CNC(=O)c1cn(-c2nc(NC3CCOCC3)ncc2C)cn1 [Example 340, 2-chloro-6-((1-(5-methyl-2-((tetrahydro-2H-pyran-4-yl)amino)-pyrimidin-4-yl)-1H-imidazole-4-carboxamido)-methyl)benzyl acetate] | – | – | < 0.05 | ≤ 0.05
O=C(N[C@H](CO)c1cccc(Cl)c1)c1cn(-c2ccnc(NC3CC3)c2)cn1 [Compound 116, (S)-N-(1-(3-chlorophenyl)-2-hydroxyethyl)-1-(2-(cyclopropylamino)pyridin-4-yl)-1H-imidazole-4-carboxamide] | < 0.05 | ≤ 0.05 | – | –
COc1cnc(Nc2ccc(F)cc2Cl)nc1-n1ccc(C(=O)NC(CO)c2ccccc2)c1 (stereo not drawn) [Compound 129, 1-(2-((2-chloro-4-fluorophenyl)amino)-5-methoxy-pyrimidin-4-yl)-N-(2-hydroxy-1-phenylethyl)-1H-pyrrole-3-carboxamide] | < 0.05 | ≤ 0.05 | – | –
Cc1cnc(Nc2ccc(F)cc2Cl)cc1-n1ccc(C(=O)NC(CO)c2cccc(Cl)c2)c1 (stereo not drawn) [Compound 91, 1-(2-((2-chloro-4-fluorophenyl)amino)-5-methylpyridin-4-yl)-N-(1-(3-chlorophenyl)-2-hydroxyethyl)-1H-pyrrole-3-carboxamide] | < 0.05 | ≤ 0.05 | – | –
